Key:
[1] = tested on: HIV-1GB8; assay: Inhibition of syncytia formation in JM cells infected with HIV-1GB8 (3 days incubation, 37° C.); assay type: cell-based; set-up: unit not given here; settings: HIV-1GB8, 3 days at 37° C.
From the text: (§1) Inhibition of the maturation of envelope glycoproteins gp 160 and gp 120 in human HIV by α-glucosidase I inhibitors result in reductions in infectivity and syncytial formation of the HIV virus. AIDS, Vol. 5(6): 693-698 (1991). Therefore, in order to test the antiviral activity of the compounds of the present invention, the following protocol was followed.
(§2) JM cells were infected with HIV-1GB8 for one hour at room temperature. The cells were then washed and subsequently grown in the presence of varying concentrations of test compound or no compound (control). […] The cell-free supernatant fluid was then titrated for levels of infectivity.
ED50 means 50% effective dose corresponds to the concentration of inhibitor required to lower the syncytia counts by 50%.

[2] = tested on: HIV-1GB8; assay: Infectivity titration of cell-free supernatant from HIV-1GB8 infected JM cells; assay type: cell-based
From the text: as §1, §2
Infectivity is expressed as log10 determined by the highest dilution of cell-free medium at which syncytia was detected. The results in Table 1 were found.

[3] = Human immunodeficiency virus 1, 72 h, Conc 0.06 mM, read-out: % Control
[4] = Human immunodeficiency virus 1, 72 h, Conc 0.125 mM, read-out: % Control
[5] = Conc 0.5 mM, control 10^3 (Example 44) or 10^4 (Example 43)
[6] = Human immunodeficiency virus 1, 72 h, Conc 0.5 mM, read-out: % Control

C[Si](C)(CCCCN1C[C@H](O)[C@@H](O)[C@H](O)[C@H]1CO)c1ccccc1 [Example 53, 1,5-dideoxy-1,5-{[4-(dimethylphenylsilyl)butyl]imino}-D-glucitol]
ED50 (concentration required to lower the syncytia counts by 50%) [1]: 12

C[Si](C)(C)CCCCCCN1C[C@H](O)[C@@H](O)[C@H](O)[C@H]1CO [Example 52, 1,5-Dideoxy-1,5-{[6-(Trimethylsilyl)Hexyl]Imino}-D-Glucitol]
ED50 (concentration required to lower the syncytia counts by 50%) [1]: 33

C[Si](C)(C)CCCCN1C[C@H](O)[C@@H](O)[C@H](O)[C@H]1CO [Example 36, 1,5-dideoxy-1,5-{[4-(trimethylsilyl)butyl]imino}-D-glucitol]
Infectivity (highest dilution of cell-free medium at which syncytia was detected) ([2]; Conc 0.06 mM, control 10^4): 10^3 | Infectivity (highest dilution of cell-free medium at which syncytia was detected) ([2]; Conc 0.125 mM, control 10^4): 10^3 | activity at 60 µM [2, 3]: 73% | activity at 125 µM [2, 4]: 37%

C[Si](C)(C)c1ccc(CN2C[C@H](O)[C@@H](O)[C@H](O)[C@H]2CO)cc1 [Example 46, 1,5-dideoxy-1,5-[{[4-(trimethylsilyl)phenyl]methyl}imino]-D-glucitol]
ED50 (concentration required to lower the syncytia counts by 50%) [1]: 10 | Infectivity (highest dilution of cell-free medium at which syncytia was detected) ([2]; Conc 0.06 mM, control 10^4): 10^3 | Infectivity (highest dilution of cell-free medium at which syncytia was detected) ([2]; Conc 0.125 mM, control 10^4): 10^2 | activity at 60 µM [2, 3]: 55% | activity at 125 µM [2, 4]: 28%

CC[Si](C)(C)CN1C[C@H](O)[C@@H](O)[C@H](O)[C@H]1CO [Example 60, 1,5-Dideoxy-1,5-{[(Ethyldimethylsilyl)-Methyl]Imino}-D-Glucitol]
ED50 (concentration required to lower the syncytia counts by 50%) [1]: 18

C[Si](C)(C)CCCCCN1C[C@H](O)[C@@H](O)[C@H](O)[C@H]1CO [Example 49, 1,5-dideoxy-1,5-{[5-(trimethylsilyl)pentyl]imino}-D-glucitol]
Infectivity (highest dilution of cell-free medium at which syncytia was detected) ([2]; Conc 0.006 mM, control 10^3): 10^2 | Infectivity (highest dilution of cell-free medium at which syncytia was detected) ([2]; Conc 0.012 mM, control 10^3): 10^1 | activity at 6 µM ([2]; Human immunodeficiency virus 1, 72 h, Conc 0.006 mM, read-out: % Control): 63% | activity at 12 µM ([2]; Human immunodeficiency virus 1, 72 h, Conc 0.012 mM, read-out: % Control): 24%

CC(C)(C)[Si](C)(C)/C=C/CN1C[C@H](O)[C@@H](O)[C@H](O)[C@H]1CO [Example 55, 1,5-Dideoxy-1,5-{[(E)-3-(t-butyldimethylsilyl)-2-propenyl]imino}-D-glucitol]
ED50 (concentration required to lower the syncytia counts by 50%) [1]: 45

C[Si](C)(C)c1cccc(CN2C[C@H](O)[C@@H](O)[C@H](O)[C@H]2CO)c1 [Example 43, 1,5-Dideoxy-1,5-[{[3-(Trimethylsilyl)Phenyl]Methyl}Imino]-D-Glucitol]
ED50 (concentration required to lower the syncytia counts by 50%) [1]: > 250 | Infectivity (highest dilution of cell-free medium at which syncytia was detected) ([2]; Conc 0.25 mM, control 10^4): 10^4 | Infectivity (highest dilution of cell-free medium at which syncytia was detected) [2, 5]: 10^4 | activity at 250 µM ([2]; Human immunodeficiency virus 1, 72 h, Conc 0.25 mM, read-out: % Control): 100% | activity at 500 µM [2, 6]: 100%

C[Si](C)(C)CCCN1C[C@H](O)[C@@H](O)[C@H](O)[C@H]1CO [Example 44, 1,5-Dideoxy-1,5-{[3-(trimethylsilyl)propyl]imino}-D-glucitol]
Infectivity (highest dilution of cell-free medium at which syncytia was detected) [2, 5]: 10^1 | activity at 500 µM [2, 6]: 0%

C[Si](C)(C)/C=C/CN1C[C@H](O)[C@@H](O)[C@H](O)[C@H]1CO [Example 40, 1,5-dideoxy-1,5-{[(E)-3-(trimethylsilyl)-2-propenyl]imino}-D-glucitol]
ED50 (concentration required to lower the syncytia counts by 50%) [1]: 20 | Infectivity (highest dilution of cell-free medium at which syncytia was detected) ([2]; Conc 0.06 mM, control 10^4): 10^3 | Infectivity (highest dilution of cell-free medium at which syncytia was detected) ([2]; Conc 0.125 mM, control 10^4): 10^2 | activity at 60 µM [2, 3]: 79% | activity at 125 µM [2, 4]: 23%

CC(C)(C)[Si](C)(C)/C=C\CN1C[C@H](O)[C@@H](O)[C@H](O)[C@H]1CO [Example 59, 1,5-Dideoxy-1,5-{[(Z)-3-(t-butyldimethylsilyl)-2-propenyl]-imino-}-D-glucitol]
ED50 (concentration required to lower the syncytia counts by 50%) [1]: 190

C[Si](C)(C)/C=C\CN1C[C@H](O)[C@@H](O)[C@H](O)[C@H]1CO [Example 54, 1,5-dideoxy-1,5-{[(Z)-3-(trimethylsilyl)-2-propenyl]imino}-D-glucitol]
ED50 (concentration required to lower the syncytia counts by 50%) [1]: 310

C[Si](C)(C)CN1C[C@H](O)[C@@H](O)[C@H](O)[C@H]1CO [Example 32, 1,5-dideoxy-1,5-{[(trimethylsilyl)methyl]imino}-D-glucitol]
ED50 (concentration required to lower the syncytia counts by 50%) [1]: 540

Reference: US5536732A, “N-derivatives of 1-deoxy nojirimycin” (Merrell Pharmaceuticals Inc., priority 1990, dated 1996)
